According to the supplement of paper PMC10307832:

How the values were obtained:
Test in all cases: relative viability (nuclei count vs DMSO), 5 days (fraction); higher = more cells survive
[1] = tested on: NCI-H1792
How it was run: (§1)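 Lung cancer cell lines in 1536-well plates got either a single drug or a fixed anchor-drug dose together with five library-drug doses (not always all listed) in √10 steps, by pin tool, on the day after seeding. Nuclei were counted after 5 days, and relative viability is the treated-to-vehicle ratio of nuclei counts. Values are medians of duplicate plates.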

[2] = tested on: NCI-H1395
How it was run: as §1

[3] = tested on: NCI-H2126
How it was run: as §1

[4] = tested on: NCI-H1944
How it was run: as §1

[5] = tested on: CAL-12T
How it was run: as §1

[6] = tested on: RERF-LC-KJ
How it was run: as §1

[7] = tested on: LXF-289
How it was run: as §1

[8] = tested on: LCLC-103H
How it was run: as §1

[9] = tested on: LU99A
How it was run: as §1

[10] = tested on: HCC-827
How it was run: as §1

[11] = tested on: NCI-H1666
How it was run: as §1

[12] = tested on: NCI-H2347
How it was run: as §1

[13] = tested on: NCI-H358
How it was run: as §1

[14] = tested on: NCI-H3122
How it was run: as §1

[15] = tested on: ABC-1
How it was run: as §1

[16] = tested on: ChaGo-K-1
How it was run: as §1

[17] = tested on: NCI-H1793
How it was run: as §1

[18] = tested on: HCC-44
How it was run: as §1

[19] = tested on: NCI-H322M
How it was run: as §1

[20] = tested on: SK-LU-1
How it was run: as §1

[21] = tested on: NCI-H520
How it was run: as §1

[22] = tested on: NCI-H1755
How it was run: as §1

Cc1csc(=NC2CCCCC2)n1/N=C/c1ccc(O)c(O)c1O [MIM1] + CC(=O)c1c(C)c2cnc(Nc3ccc(N4CCNCC4)cn3)nc2n(C2CCCC2)c1=O [Palbociclib] (partner 0.5 µM)
relative viability ([1]; first compound 0.2 µM): 0.659 | relative viability ([1]; first compound 0.6325 µM): 0.622 | relative viability ([1]; first compound 2 µM): 0.644 | relative viability ([1]; first compound 6.325 µM): 0.475 | relative viability ([1]; first compound 20 µM): 0.56 | relative viability ([2]; first compound 0.2 µM): 0.583 | relative viability ([2]; first compound 0.6325 µM): 0.6 | relative viability ([2]; first compound 2 µM): 0.596 | relative viability ([2]; first compound 6.325 µM): 0.579 | relative viability ([2]; first compound 20 µM): 0.406 | relative viability ([3]; first compound 0.2 µM): 0.336 | relative viability ([3]; first compound 0.6325 µM): 0.388 | relative viability ([3]; first compound 2 µM): 0.348 | relative viability ([3]; first compound 6.325 µM): 0.34 | relative viability ([3]; first compound 20 µM): 0.329 | relative viability ([4]; first compound 0.2 µM): 0.369 | relative viability ([4]; first compound 0.6325 µM): 0.314 | relative viability ([4]; first compound 2 µM): 0.248 | relative viability ([4]; first compound 6.325 µM): 0.255 | relative viability ([4]; first compound 20 µM): 0.186 | relative viability ([5]; first compound 0.2 µM): 0.526 | relative viability ([5]; first compound 0.6325 µM): 0.386 | relative viability ([5]; first compound 2 µM): 0.481 | relative viability ([5]; first compound 6.325 µM): 0.268 | relative viability ([5]; first compound 20 µM): 0.118 | relative viability ([6]; first compound 0.2 µM): 0.952 | relative viability ([6]; first compound 0.6325 µM): 0.995 | relative viability ([6]; first compound 2 µM): 0.686 | relative viability ([6]; first compound 6.325 µM): 0.613 | relative viability ([6]; first compound 20 µM): 0.227 | relative viability ([7]; first compound 0.2 µM): 0.603 | relative viability ([7]; first compound 0.6325 µM): 0.594 | relative viability ([7]; first compound 2 µM): 0.583 | relative viability ([7]; first compound 6.325 µM): 0.535 | relative viability ([7]; first compound 20 µM): 0.237 | relative viability ([8]; first compound 0.2 µM): 0.465 | relative viability ([8]; first compound 0.6325 µM): 0.528 | relative viability ([8]; first compound 2 µM): 0.477 | relative viability ([8]; first compound 6.325 µM): 0.482 | relative viability ([8]; first compound 20 µM): 0.389 | relative viability ([9]; first compound 0.2 µM): 0.404 | relative viability ([9]; first compound 0.6325 µM): 0.405 | relative viability ([9]; first compound 2 µM): 0.38 | relative viability ([9]; first compound 6.325 µM): 0.355 | relative viability ([9]; first compound 20 µM): 0.159 | relative viability ([10]; first compound 0.2 µM): 0.443 | relative viability ([10]; first compound 0.6325 µM): 0.511 | relative viability ([10]; first compound 2 µM): 0.454 | relative viability ([10]; first compound 6.325 µM): 0.307 | relative viability ([10]; first compound 20 µM): 0.227 | relative viability ([11]; first compound 0.2 µM): 0.668 | relative viability ([11]; first compound 0.6325 µM): 0.608 | relative viability ([11]; first compound 2 µM): 0.611 | relative viability ([11]; first compound 6.325 µM): 0.647 | relative viability ([11]; first compound 20 µM): 0.67 | relative viability ([12]; first compound 0.2 µM): 0.408 | relative viability ([12]; first compound 0.6325 µM): 0.404 | relative viability ([12]; first compound 2 µM): 0.446 | relative viability ([12]; first compound 6.325 µM): 0.42 | relative viability ([12]; first compound 20 µM): 0.356 | relative viability ([13]; first compound 0.2 µM): 0.145 | relative viability ([13]; first compound 0.6325 µM): 0.153 | relative viability ([13]; first compound 2 µM): 0.122 | relative viability ([13]; first compound 6.325 µM): 0.118 | relative viability ([13]; first compound 20 µM): 0.128 | relative viability ([14]; first compound 0.2 µM): 0.186 | relative viability ([14]; first compound 0.6325 µM): 0.195 | relative viability ([14]; first compound 2 µM): 0.174 | relative viability ([14]; first compound 6.325 µM): 0.187 | relative viability ([14]; first compound 20 µM): 0.124 | relative viability ([15]; first compound 0.2 µM): 0.603 | relative viability ([15]; first compound 0.6325 µM): 0.988 | relative viability ([15]; first compound 2 µM): 0.544 | relative viability ([15]; first compound 6.325 µM): 0.406 | relative viability ([15]; first compound 20 µM): 0.473 | relative viability ([16]; first compound 0.2 µM): 0.951 | relative viability ([16]; first compound 0.6325 µM): 0.926 | relative viability ([16]; first compound 2 µM): 0.961 | relative viability ([16]; first compound 6.325 µM): 0.7 | relative viability ([16]; first compound 20 µM): 0.163 | relative viability ([17]; first compound 0.2 µM): 0.317 | relative viability ([17]; first compound 2 µM): 0.353 | relative viability ([17]; first compound 6.325 µM): 0.29 | relative viability ([17]; first compound 20 µM): 0.293 | relative viability ([18]; first compound 0.2 µM): 0.902 | relative viability ([18]; first compound 0.6325 µM): 0.981 | relative viability ([18]; first compound 2 µM): 0.94 | relative viability ([18]; first compound 6.325 µM): 0.608 | relative viability ([18]; first compound 20 µM): 0.578 | relative viability ([19]; first compound 0.2 µM): 0.466 | relative viability ([19]; first compound 0.6325 µM): 0.466 | relative viability ([19]; first compound 2 µM): 0.488 | relative viability ([19]; first compound 6.325 µM): 0.459 | relative viability ([19]; first compound 20 µM): 0.384 | relative viability ([20]; first compound 0.2 µM): 0.442 | relative viability ([20]; first compound 0.6325 µM): 0.397 | relative viability ([20]; first compound 2 µM): 0.368 | relative viability ([20]; first compound 6.325 µM): 0.418 | relative viability ([20]; first compound 20 µM): 0.307 | relative viability ([21]; first compound 0.2 µM): 0.195 | relative viability ([21]; first compound 0.6325 µM): 0.239 | relative viability ([21]; first compound 2 µM): 0.201 | relative viability ([21]; first compound 6.325 µM): 0.22 | relative viability ([21]; first compound 20 µM): 0.183 | relative viability ([22]; first compound 0.2 µM): 0.432 | relative viability ([22]; first compound 0.6325 µM): 0.453 | relative viability ([22]; first compound 2 µM): 0.431 | relative viability ([22]; first compound 6.325 µM): 0.419 | relative viability ([22]; first compound 20 µM): 0.306
